In patent US12173322B2, “Genome-edited induced pluripotent stem cells, and cells derived therefrom, and uses thereof” (priority 2020, dated 2024):

T1: ASIC1a (Homo sapiens, UniProt P78348)
T1 sequence (P78348 1-528): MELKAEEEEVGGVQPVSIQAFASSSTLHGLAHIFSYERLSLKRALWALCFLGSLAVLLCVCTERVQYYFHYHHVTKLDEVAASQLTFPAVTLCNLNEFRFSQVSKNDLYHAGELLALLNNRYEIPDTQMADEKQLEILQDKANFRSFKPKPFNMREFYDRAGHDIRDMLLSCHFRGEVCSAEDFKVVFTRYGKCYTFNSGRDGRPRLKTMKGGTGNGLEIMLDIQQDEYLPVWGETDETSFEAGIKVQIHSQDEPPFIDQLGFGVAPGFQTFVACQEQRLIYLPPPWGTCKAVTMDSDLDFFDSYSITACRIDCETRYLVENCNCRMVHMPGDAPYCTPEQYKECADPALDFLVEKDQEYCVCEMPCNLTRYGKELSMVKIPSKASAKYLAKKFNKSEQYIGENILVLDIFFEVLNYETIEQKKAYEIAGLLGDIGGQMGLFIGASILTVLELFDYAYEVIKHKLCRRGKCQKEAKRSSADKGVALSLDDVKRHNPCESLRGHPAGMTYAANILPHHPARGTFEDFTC


Assays:
[1] = test system: Langendorff-perfused isolated mouse hearts; assay: IRI in Langendorff-perfused isolated mouse hearts
Procedure: IRI in Langendorff-perfused mouse hearts. […] Mice (12-14 weeks) were anesthetized via an intraperitoneal injection of 10 mg/mL ketamine and 1.6 mg/mL xylazil. The heart was excised via thoracotomy and the aorta cannulated. […] Temperature was continuously measured with thermocouple needle microprobes (SDR Scientific) and maintained at 37° C. with circulating water baths. Contractile function was measured via a fluid-filled balloon inserted in the left ventricle and connected to a pressure transducer (ADInstruments Pty Ltd.). Coronary flow was measured with an in-line Doppler flow probe positioned above the aortic cannulae (Transonic Systems Inc.). All functional data were recorded on a four-channel MacLab system (ADInstruments Pty Ltd.). Following 15-30 min of equilibration, hearts were switched to ventricular pacing at 420 beats/min (BPM) using a SD9 stimulator (Grass Instruments, Inc.). Baseline measurements were made for 10-20 min followed by 25 min of global normothermic ischemia and 45 min of reperfusion. Pacing was stopped during ischemia and resumed after 15 min of reperfusion. For peptide-treated experimental groups, 1 μM peptide solution was infused with a syringe pump (World Precision Instruments, LLC.) into the buffer, directly upstream of the cannula, at a rate of 1% of CF, for a final working concentration of 10 nM. Peptide was infused for 10 min prior to the onset of ischemia and during the first 15 min of reperfusion.

hiPSC-CMs [2] = assay: In vitro ischemia/acidosis with reperfusion in hiPSC-CMs, cell death (LDH); format: cell-based, human; details: 10 nM; 18 h hypoxia (0.5% O2) pH 5.0, then 1 h pH 7.4 normoxia
Text: In vitro ischemia-acidosis injury model with hiPSC-CMs. Differentiated cardiomyocytes were replated on either day 15 or day 17 of differentiation for in vitro ischemia/acidosis assays. At the time of replating, a subset of cells (˜500,000) was set aside for flow cytometry analysis of cardiomyocyte purity (see supplemental methods). For all experiments, only cell preparations with >80% sarcomeric α-actinin-positive cardiomyocytes were used. After re-plating, the cells were maintained for an additional 7 days in RPMI+B27™. To prepare media for ischemia/acidosis injury, 10×HBSS without sodium bicarbonate (Sigma) was diluted to 1× concentration in sterile tissue culture-grade water. Solutions were buffered with either 12 mM HEPES (for pH 7.4 media, Sigma Aldrich) or 12 mM MES (for pH <6.5, Sigma Aldrich) and the pH adjusted accordingly with 1 M NaOH. The medium was sterile filtered with 0.22 μm syringe filters (Millipore). […] For all cell culture experiments, percent cell death was calculated using low and high controls. […]
To assess whether ASIC1a inhibition is cardioprotective in hiPSC-CMs, the inventors evaluated cell death in response to in vitro acidosis, induced by culturing hiPSC-CMs in Hank's […] (HBSS) with pH adjusted to pH 7.4, 6.0, or 5.0. […]

ASIC1a = biological target: T1, ASIC1a; details: read-out: IC50, inhibitor of ASIC1a; cited from earlier work
hiPSC-CMs [3] = assay: hiPSC-CM calcium analysis (FLIPR Tetra); format: cell-based, human; details: any evaluated concentration (1 nM - 1 μM)
Procedure: hiPSC-CM calcium analysis. Cardiomyocytes were replated (2×10^4 per well) in 384-well plates (CellBIND black with clear bottom, Corning) and cultured for 7 days in RPMI+B27™. On the day of the experiment, the cells were loaded for 1.5 h at 37° C. with FLIPR calcium 4 dye (Molecular Devices) diluted in HBSS pH 7.4. After loading, the plate was transferred to a FLIPR Tetra fluorescent plate reader (Molecular Devices). Calcium transients were measured with excitation wavelengths at 470-495 nm and emission at 515-575 nm. For each plate, the camera gain and intensity were adjusted to optimize signal intensity. Data for each well were expressed as normalized arbitrary fluorescence units. All data were acquired at 0.5 s per read, with baseline measurements for 45 s followed by at least 100 s of data collection after each peptide addition. Peptide solutions (in HBSS pH 7.4) were added to each well to give a final concentration of 1 nM, 10 nM, 100 nM, or 1 μM. Calcium amplitude, maximum calcium, minimum calcium, and spontaneous beating rate were analysed using ScreenWorks software (Molecular Devices) and normalized to baseline measurements.
Replated hiPSC-CMs were loaded with a fluorescent calcium dye and calcium transients were recorded before and after peptide addition.

hiPSC-CMs [4] = assay: In vitro acidosis injury of hiPSC-CMs, cell death (LDH); format: cell-based, human; details: for cell death: 20 nM overnight
Text: In vitro ischemia-acidosis injury model with hiPSC-CMs. Differentiated cardiomyocytes were replated on either day 15 or day 17 of differentiation for in vitro ischemia/acidosis assays. At the time of replating, a subset of cells (˜500,000) was set aside for flow cytometry analysis of cardiomyocyte purity (see supplemental methods). For all experiments, only cell preparations with >80% sarcomeric α-actinin-positive cardiomyocytes were used. After re-plating, the cells were maintained for an additional 7 days in RPMI+B27™. To prepare media for ischemia/acidosis injury, 10×HBSS without sodium bicarbonate (Sigma) was diluted to 1× concentration in sterile tissue culture-grade water. Solutions were buffered with either 12 mM HEPES (for pH 7.4 media, Sigma Aldrich) or 12 mM MES (for pH <6.5, Sigma Aldrich) and the pH adjusted accordingly with 1 M NaOH. The medium was sterile filtered with 0.22 μm syringe filters (Millipore). […] For reperfusion experiments, the medium was replaced with HBSS pH 7.4 (with or without peptide) after overnight incubation and cultured for 1 h under normoxic conditions. […] For all cell culture experiments, percent cell death was calculated using low and high controls. For low control (LC), cardiomyocytes were cultured overnight in standard culture media (RPMI+B27™). For high control (HC), cells were cultured in RPMI+B27™ containing 1% Triton™ X-100 (Sigma-Aldrich).
To assess whether ASIC1a inhibition is cardioprotective in hiPSC-CMs, the inventors evaluated cell death in response to in vitro acidosis, induced by culturing hiPSC-CMs in Hank's […] (HBSS) with pH adjusted to pH 7.4, 6.0, or 5.0. […] To mimic ischemia/acidosis in vitro, hiPSC-CMs were incubated overnight in combined hypoxic (0.5% O2) and acidic (pH 5.0) conditions with or without peptide.

Row | Molecule | EDP ([1]; after 45 min reperfusion, 10 nM peptide) [mmHg] | reactive hyperaemia during early reperfusion (increased CF) ([1]; first 5 min of reperfusion) | baseline contractile function ([1]; first 10 min of peptide infusion prior to ischemia, 10 nM) | cell death (hiPSC-CMs [2]) | IC50 (ASIC1a) [nM] | calcium amplitudes (hiPSC-CMs [3]) | spontaneous beating rate (hiPSC-CMs [3]) | cardioprotection against cell death (LDH) (hiPSC-CMs [4]; overnight at pH 5.0, even at concentrations as low as 1 nM) | cell death (hiPSC-CMs [4]; pH 6.0) | cell death (hiPSC-CMs [4]; pH 7.4)
1 | PcTx1 | 33±8 | significant reactive hyperaemia | no effect | blocked | ~1 | Neither Hi1a nor PcTx1 altered | Neither Hi1a nor PcTx1 altered | nearly complete cardioprotection |  | 
2 | MitTx (protein) chain 1: QIRPAFCYEDPPFFQKCGAFVDSYYFNRSRITCVHFFYGQCDVNQNHFTTMSECNRVCHG chain 2: NLNQFRLMIKCTNDRVWADFVDYGCYCVARDSNTPVDDLDRCCQAQKQCYDEAVKVHGCKPLVMFYSFECRYLASDLDCSGNNTKCRNFVCNCDRTATLCILTATYNRNNHKIDPSRCQ |  |  |  |  |  |  |  |  | increased cell death | increased cell death
